Source: publication PMC4201456, “Cytoxicity and Apoptotic Mechanism of Ruthenium(II) Amino Acid Complexes in Sarcoma-180 Tumor Cells” (PLoS ONE, 2014)

Columns and labels:
Format in all cases: cell-based, murine
L929 normal cells = experiment: MTT cell viability assay, L929 normal cells; conditions: L929 normal cell line, 48 h
Protocol: The murine sarcoma-180 tumor cells (S180) (ATCC# TIB-66) and normal murine fibroblast cells (L-929) (ATCC# CCL-1) were cultured in suspension in RPMI 1640 and DMEM media (Sigma Chemical Co., MO), respectively, supplemented with 10% fetal calf serum, 100 µg/mL penicillin, and 100 µg/mL streptomycin. The cultures were incubated in a humidified incubator (Thermo Scientific) at 37°C with 5% CO2.
The cytotoxic effects of the amino acid ruthenium complexes were evaluated using an MTT assay with S180 tumor cells and L929 normal cells as described previously. Briefly, 1.0×10^5 S180 cells and 2.0×10^4 L929 cells were plated in 96-well tissue culture plates and treated with different concentrations of amino acid ruthenium complexes (0.2–200 µM) for 48 h. After treatment, 10 µL of MTT (5 mg mL^−1) was added to each well, and the plates were incubated at 37°C for an additional 3 h. The purple formazan crystals were dissolved in 50 µL of SDS, and the absorbance was determined at 545 nm using a Stat Fax 2100 microplate reader (Awareness Technology, Palm City, FL, USA). The cell viability was calculated as follows: viability (%) = (absorbance of the treated wells)/(absorbance of the control wells) ×100. The IC50 (complex concentration (µM) that results in a 50% reduction in cellular viability) was obtained from dose-response curves using GraphPad Prism 4.02 for Windows (GraphPad Software, San Diego, CA, USA).

S180 tumor cells = experiment: Annexin V-FITC/PI double staining, flow cytometry
Protocol: The cell death of S180 tumor cells was examined using the Annexin V-FITC Apoptosis Detection Kit (BD Biosciences) according to the manufacturer's instructions. S180 cells were treated with complex 2 (40 µM and 60 µM) for 24 h and 48 h. Briefly, 5.0×10^5 cells were harvested and washed with PBS. The cells were re-suspended in 400 µL of binding buffer. Next, 5 µL of Annexin V-FITC and 1 µL of PI were added. Flow cytometric analysis was performed immediately after supravital staining. Data acquisition and analysis were performed on a flow cytometer (FACSCalibur, BD Biosciences) using Cell Quest software. The criteria for positivity in cells in early stages of apoptosis were Annexin V-positive and PI-negative, whereas the criteria for cells in the late stages of apoptosis were both Annexin V-positive and PI-positive.

caspase-3 = experiment: Caspase activity colorimetric assay (DEVD-pNA); conditions: S180 cells, 24 h, control 100%
Protocol: (§1) Direct measurement of the activity of caspases 3, 8, and 9 were performed using the ApoTarget Caspase 3, 8, and 9 Protease Assay (Invitrogen) according to the manufacturer's recommendations. After treatment with complex 2 (40 µM and 60 µM) for 24 h, the cells were lysed with chilled cell lysis buffer. The protein concentration was then measured using the BSA Protein Assay Kit (BioRad). An aliquot of the protein extract (75 µg) was mixed with 50 µL of 2X reaction buffer supplemented with 10 mM DTT and the substrates of DEVD-pNA (caspase-3), IETD-pNA (caspase-8), or LEHD-pNA (caspase-9). The mixtures were then incubated for 2 h at 37°C. Subsequently, the formation of p-nitroanilide in the samples was measured using an ELISA microplate reader at 405 nm. The increases in the activities of caspase-3, caspase-8, and caspase-9 were determined by comparing the results with the control.

caspase-9 = experiment: Caspase activity colorimetric assay (LEHD-pNA); conditions: S180 cells, 40 µM, 24 h; control 100%
Protocol: as §1

bax = experiment: Real-time RT-PCR gene expression, bax; conditions: S180 cells, 40 µM, 6 h; normalized to β-actin
Protocol: (§2) The S180 cells were treated with 40 µM complex 2 for 6 h. Total RNA was extracted with Trizol reagent (Sigma-Aldrich, USA) following the manufacturer's protocol. Total RNA (2.0 µg) was used to produce complementary DNA (cDNA) with random primers (Applied Biosystems, USA) in a 20 µL reaction mixture according to the manufacturer's protocol.
(§3) Real-time PCR was carried out using a Line Gene K (Bioer Technology) instrument. Real-time PCR reactions were carried out in a 20 µL reaction mixture, including 2 µL of cDNA, 10 µL of SYBR Green PCR Master Mix (LGC Biotechnology, UK), and 2.0 µL of 400 nM forward and reverse primers. The PCR program was initiated at 95°C for 15 min followed by 40 cycles of 95°C for 15 s, 55°C for 15 s, and 72°C for 30 s. The data were analyzed according to the comparative Ct method and were normalized to the β-actin reference gene expression in each sample.

caspase 3 = experiment: Real-time RT-PCR gene expression, caspase 3; conditions: S180 cells, 40 µM, 6 h; normalized to β-actin
Protocol: as §2, §3

caspase 9 = experiment: Real-time RT-PCR gene expression, caspase 9; conditions: S180 cells, 40 µM, 6 h; normalized to β-actin
Protocol: as §2, §3

caspase 8 = experiment: Real-time RT-PCR gene expression, caspase 8; conditions: S180 cells, 40 µM, 6 h; p>0.05
Protocol: as §2, §3

Bak protein = experiment: Western blot analysis of Bak protein; conditions: S180 cells, 60 µM, 24 h; normalized to β-actin; control 5.08
Protocol: The S180 cells were treated with 40 µM and 60 µM complex 2 for 24 h. Untreated cells maintained in media only were used as the control. After treatment, the cells were washed with PBS and lysed with lysis buffer (Invitrogen). The samples were stored at −20°C until further analysis. The protein concentrations of the resulting lysates were determined using the Bradford assay. A total of 70 µg of protein extract was mixed with Laemmli loading buffer and subjected to 12% SDS-PAGE at 100 V for 2 h, followed by electroblotting to nitrocellulose membranes (0.45 µm) (Bio-Rad Laboratories, Inc.) at 400 mA for 1.5 h. […] The membranes were washed in TBS-T, incubated with an HRP-conjugated IgG secondary antibody (Santa Cruz Biotechnology Inc., 1∶1000 dilution) for 1 h, and washed with TBS-T. The immunoreactive bands were detected using an ECL western blotting substrate (Super Signal West Pico Substrate, Thermo Scientific), and the ECL signals were captured using a CCD camera (ImageQuant LAS 4000 mini; GE Healthcare). The optical density of the target protein bands was measured using IMAGE J software downloaded from the NIH website (http://rsb.info.nih.gov.ij/) to compare the protein levels. […]

## F[P-](F)(F)(F)(F)F.NCC(=O)[O-].[Ru+2].c1ccc(-c2ccccn2)nc1.c1ccc(P(CCCCP(c2ccccc2)c2ccccc2)c2ccccc2)cc1 [Complex 2, [Ru(gly)(bipy)(dppb)]PF6]
L929 normal cells
  IC50: 51.6 ± 1.22 µM
S180 tumor cells; 40 µM, 24 h
  cells in early apoptosis (Annexin V+ and PI-): 19.76%
  cells in late apoptosis (Annexin V+ and PI+): 22.76%
S180 tumor cells; 40 µM, 48 h
  cells in early apoptosis (Annexin V+ and PI-): 42.59%
  cells in late apoptosis (Annexin V+ and PI+): 25.16%
S180 tumor cells; 60 µM, 24 h
  cells in early apoptosis (Annexin V+ and PI-): 22.48%
  cells in late apoptosis (Annexin V+ and PI+): 31.67%
S180 tumor cells; 60 µM, 48 h
  cells in early apoptosis (Annexin V+ and PI-): 47.48%
  cells in late apoptosis (Annexin V+ and PI+): 30.24%
caspase-3; 40 µM
  activity of caspase-3: 136.05%
caspase-3; 60 µM
  activity of caspase-3: 170.24%
caspase-9
  activity of caspase-9: 176.43%
bax
  expression level of the bax gene compared to untreated control: 2.75 fold
Caspase 3
  expression level of caspase 3 compared to control: 2.55 fold
Caspase 9
  expression level of caspase 9 compared to control: 1.83 fold
Caspase 8
  expression level of caspase 8 compared with control: remained unchanged
Bak protein
  expression level of the Bak protein: 9.40 fold
